Measurements: patent publication US20150141375A1 (priority 2009, published 2015)
“Also recorded” adds a separate entry of the source.

Legend:
[1] = test system: CMV; conditions: person with renal failure, all observed time points after CMX001
[2] = test system: Variola major; assay: organism not typed; type: cell-based; conditions: Vero 76
[3] = test system: HSV-1; assay: In vitro potency against dsDNA viruses: HSV-1; type: cell-based; conditions: Human alphaherpesvirus 1, MRC5; MRC-5
[4] = test system: JC; assay: In vitro potency against dsDNA viruses: JC; type: cell-based, JC virus; conditions: JC polyomavirus
[5] = PK comparison, rabbit; conditions: in vivo, 2 mg/kg, calculated from doses of 5 and 10 mg/kg, analyte = label, after CMX001
Excerpt: (§1) Table 4 illustrates the PK comparison of CMX001 with CMX021 and CMX064 for mouse, rabbit and human.

[6] = test system: EBV; assay: In vitro potency against dsDNA viruses: EBV; type: cell-based; conditions: human gammaherpesvirus 4; Dardi
[7] = test system: SVG cells; assay: SVG cell viability / cell number (MTS, alamar blue, hematoxylin); type: cell-based, human
Description: Quantification of cell viability using the MTS [3-(4,5-dimethylthiazol-2-yl)-5-(3-carboxymethoxyphenyl)-2-(4-sulfophenyl)-2H-tetrazolium] assay is based on bioactivity of mitochondrial dehydrogenase in living cells, which converts colorless tetrazolium salt to a colored formazan. MTS assays were performed according to manufacturer's instructions (Promega, Madison Wis.). Briefly, culture medium was removed from cells and 50 μL of PBS was added into each well of a 96 well plate. Ten μL of MTS reagent were added to wells of cells, and to a well without cells to determine background. Mixtures were incubated at 37° C. for 2 hours and the absorbance was measured at 490 nm. Trypan blue staining was performed on identical cultures to correlate MTS values with cell viability. The final values indicated are the result from 3 replicates. The value for the non-treated control was set to 100% and all other values are represented as a percentage of the control. Alamar blue (AB) assay.
Quantification of cell viability using the alamar blue (AB) assay was performed according to the manufacturer's instructions (Invitrogen, Gaithersburg, Md.). Briefly, 10 μL of AB reagent was added to each well of a 96 well dish containing cells or without cells to determine background. Mixtures were incubated at 37° C. for 6 hours and the absorbance measured at 570 nm using 600 nm as a reference wavelength. The value for the non-treated control was set to 100% and all other values are represented as a percentage of the control.
Because cell density in cultures processed for in situ DNA hybridization could not be measured by MTS or AB assays, cell density was approximated in cell cultures processed by quantifying hematoxylin staining intensity. Coverslips containing cells were prepared for in situ DNA hybridization and co-stained with hematoxylin. Subsequently, each coverslip was scanned and the hematoxylin intensities quantified using ImageJ. To determine the total cell number per coverslip, images were acquired at 10 random positions at 100× magnification. Cells were counted throughout each image and the average cell number per slide was generated by averaging counts from the 10 images for each experimental group. Exactly 900 images at 100× magnification cover the surface of an 18 mm×18 mm coverslip.

[8] = test system: HCMV (AD169); assay: HCMV real time array of viral transcripts; type: cell-based; conditions: CDV 50 μM, GCV 15 μM, CMX001 0.5 μM; ANOVA P<0.05
[9] = test system: HSV-2; assay: In vitro efficacy against HSV-2 strains in HFF (CPE, plaque reduction); type: cell-based
Excerpt: In vitro screening by CPE assay in human foreskin fibroblast (HFF) cells with confirmation using plaque reduction assays in HFF.

[10] = test system: Mad-4 JCV; assay: JCV (Mad-4) initial infection of SVG cells (in situ DNA hybridization, qPCR)
[11] = test system: BK Virus; assay: In vitro potency against BK Virus in WI-38 cells; type: cell-based; conditions: Betapolyomavirus hominis, WI-38
[12] = test system: BKV(Dunlop); conditions: RPTECs, same test system (Bernhoff et al., 2008), cited from earlier work
[13] = PK comparison, mouse; type: in vivo; conditions: 2 mg/kg, calculated from doses of 2 and 10 mg/kg, analyte = label, after CMX001
Excerpt: as §1

[14] = test system: HPV 11; assay: In vitro potency against dsDNA viruses: HPV 11; type: cell-based; conditions: A-431; A431
[15] = test system: HPV 18; assay: In vitro potency against dsDNA viruses: HPV 18; type: cell-based; conditions: HeLa
[16] = test system: HHV-6; assay: In vitro potency against dsDNA viruses: HHV-6; type: cell-based; conditions: HSB2; HSB-2
[17] = Safety and pharmacokinetics of CMX001 in healthy volunteers; type: in vivo, human; conditions: blood, Human, analyte = label
Description: An initial study was conducted to evaluate the safety and pharmacokinetics of CMX001 in healthy volunteers. The study consisted of a single dose arm (SD) and a multiple dose arm (MD). In the single dose arm 7 cohorts of 6 subjects were treated (4 subjects received active drug and 2 placebo). Enrollment was staggered as 2 subjects (one active, one placebo) followed by 4 subjects (Groups A and B). The estimated single doses for the two highest doses treated for a […] subject were 40 mg (0.6 mg/kg cohort 6) and 70 mg (1 mg/kg cohort 7). In the multiple dose arm, cohort 6MD received 0.1 mg/kg on Day 0, 6 and 12; Cohort 7MD received 0.2 mg/kg on Day 0, 6 and 12. Levels of cidofovir, CMX001 and CMX064 (major metabolite) were measured in blood and urine of subjects during the course of the study. Gastrointestinal (GI) monitoring of the subjects included (a) monitoring for clinical signs of GI adverse events, (b) monitoring for clinical symptoms using a visual Analog Scale, (c) monitoring for appetite loss/anorexia, nausea, vomiting, diarrhea, constipation and intestinal gas/bloating, (d) laboratory tests for fecal occult blood; serum electrolytes, urine specific gravity, BUN/creatinine ratio; serum albumin, and lipids, and (e) diagnostic studies (the Wireless capsule endoscopy (PillCam®, Given Imaging)).

[18] = test system: HCMV(AD169); assay: In vitro potency against dsDNA viruses: HCMV; type: cell-based; conditions: Human betaherpesvirus 5, AD169, MRC5; MRC-5
[19] = test system: HSV-1; assay: microbe, parasite or virus in culture; type: cell-based
[20] = test system: Vaccinia Virus; assay: microbe, parasite or virus in culture; type: cell-based; conditions: Orthopoxvirus vaccinia, HFF
[21] = test system: Adenovirus; assay: In vitro activity against Adenovirus (HFF; AdV 5); type: cell-based; conditions: unidentified adenovirus
[22] = Vistide 5 mg/kg with probenecid; cited from earlier work

With Nc1ccn(C[C@@H](CO)OCP(=O)(O)O)c(=O)n1 [Cidofovir, cidofovir, reference compound] the “plasma concentrations of cidofovir” value [1] was “below 250 ng/mL”, the EC50 [2] was 27.3 µM and the EC50 [3] was 15 µM. The EC50 [4] was 0.38 µM, the AUC [5] was 50.1 ng·h/mL and the Cmax [5] was 5.44 ng/mL. For the same compound, the EC50 [6] was over 170 µM, the “cytotoxicity (total cell number)” value ([7]; CDV 0.01 to 0.1 μM) was “did not cause cytotoxicity at any concentration tested” and the “cell density and viability” value ([7]; CDV 0.1 to 1 μM, 4 days) was “did not elicit any visible changes”. For the same compound, the “levels of viral transcripts” value [8] was “Significant reductions in levels of most viral transcripts”, the EC50 ([9]; Human alphaherpesvirus 2, strain G) was 5.5 ± 2.1 µM and the EC50 ([9]; Human alphaherpesvirus 2, strain MS) was 5.1 ± 5.4 µM. The EC50 ([9]; Human alphaherpesvirus 2, strain SR) was 5.9 ± 5.9 µM, the “reduction in JCV DNA containing cells” value ([10]; CDV 0.01 to 0.1 μM, listed as CDV) was “did not elicit any significant reduction; also recorded: did not show any effect on JCV replication” and the “copy number of JCV genomes (qPCR)” value ([10]; CDV, any concentration tested) was “had no affect”. For the same compound, the EC50 [11] was 115 µM, the “IC-90 of CDV, BKV replication” value [12] was 40 µg/mL and the IC90 ([12]; read-out: IC-90 of CDV, BKV replication) was 127 µM. For the same compound, the Cmax [13] was “BQL-”, the EC50 [14] was 716 µM and the EC50 [15] was 516 µM. It also gave an EC50 [16] of 0.2 µM, an AUC ([17]; 0.05 mg/kg, CMX001 0.050 mg/kg) of 33.3 ng·h/mL and a Cmax ([17]; 0.05 mg/kg, CMX001 0.050 mg/kg) of 1.51 ng/mL. The AUC ([17]; 0.1 mg/kg, CMX001 0.100 mg/kg) was 125 ng·h/mL, the Cmax ([17]; 0.1 mg/kg, CMX001 0.100 mg/kg) was 3.44 ng/mL and the AUC ([17]; 0.2 mg/kg, CMX001 0.200 mg/kg) was 190 ng·h/mL. The Cmax ([17]; 0.2 mg/kg, CMX001 0.200 mg/kg) was 5.41 ng/mL, the AUC ([17]; 0.4 mg/kg, CMX001 0.400 mg/kg) was 445 ng·h/mL and the Cmax ([17]; 0.4 mg/kg, CMX001 0.400 mg/kg) was 10.4 ng/mL. The AUC ([17]; 0.6 mg/kg, CMX001 0.600 mg/kg) was 519 ng·h/mL, the Cmax ([17]; 0.6 mg/kg, CMX001 0.600 mg/kg) was 12.2 ng/mL and the EC50 [18] was 0.38 µM. The EC50 ([19]; Human alphaherpesvirus 1, strain E-377) was 5.5 ± 6 µM, the EC50 ([19]; Human alphaherpesvirus 1, strain F) was 1.5 ± 0.4 µM and the EC50 ([19]; Human alphaherpesvirus 1, strain HL-3) was 3.6 ± 3 µM. The EC50 [20] was 46 µM, the IC50 [21] was 1.3 µM and the EC50 ([21]; HFF) was 1.3 µM. For the same compound, the “peak plasma concentrations of cidofovir” value [22] was 19,600 ng/mL.
